BindingDB's records for patent US12391687 (Shanghai Ennovabio Pharmaceuticals, 2025)

Columns and labels:
[1] = biological target: BDNF/NT-3 growth factors receptor (Homo sapiens, UniProt Q16620); assay: In Vitro Activity Test on TRKA, TRKB, TRKC Kinase
Experimental: (§1) Table 1: Experimental MethodThe tested compounds were subjected to 3-fold serial dilution to reach a final concentration of 1 μM to 0.05 nM (10 concentrations), duplicates for each concentration; and the DMSO concentration in the detection reaction was 1%.TRKA Enzyme Reaction:0.2 ng/μL TRKA protein kinase, 1 μM TK Substrate-biotin polypeptide substrate, 14.68 μM ATP, 1×enzymatic buffer, 5 mM MgCl2, and 1 mM DTT. The assay plate was White Proxiplate384-Plus plate (PerkinElmer), and the reaction was incubated at room temperature for 40 min, and the assay volume was 10 μL.TRKB Enzyme Reaction:0.037 ng/μL TRKB protein kinase, 1 μM TK Substrate-biotin polypeptide substrate, 4.77 μM ATP, 1× enzymatic buffer, 5 mM MgCl2, 1 mM MnCl2 and 1 mM DTT. The assay plate was White Proxiplate 384-Plus plate (PerkinElmer), the reaction was incubated at room temperature for 50 min, and the assay volume was 10 μL.TRKC Enzyme Reaction:0.037 ng/μL TRKC protein kinase, 1 μM TK Substrate-biotin polypeptide substrate, 25.64 μM ATP, 1× enzymatic buffer, 5 mM MgCl2, and 1 mM DTT. The detection plate was White Proxiplate 384-Plus plate (PerkinElmer), the reaction was incubated at room temperature for 40 min, and the assay volume was 10 μL.Detection Steps:10 μL of detection reagent (containing 0.125 μM SA-XL665 and 5 μL 1×TK-Antibody) was added to the plate and incubated overnight at room temperature. Synergy Neo 2 was used to read the plate.

[2] = biological target: High affinity nerve growth factor receptor (Homo sapiens, UniProt P04629); assay: In Vitro Activity Test on TRKA, TRKB, TRKC Kinase
Sequence of High affinity nerve growth factor receptor (P04629 whole entry): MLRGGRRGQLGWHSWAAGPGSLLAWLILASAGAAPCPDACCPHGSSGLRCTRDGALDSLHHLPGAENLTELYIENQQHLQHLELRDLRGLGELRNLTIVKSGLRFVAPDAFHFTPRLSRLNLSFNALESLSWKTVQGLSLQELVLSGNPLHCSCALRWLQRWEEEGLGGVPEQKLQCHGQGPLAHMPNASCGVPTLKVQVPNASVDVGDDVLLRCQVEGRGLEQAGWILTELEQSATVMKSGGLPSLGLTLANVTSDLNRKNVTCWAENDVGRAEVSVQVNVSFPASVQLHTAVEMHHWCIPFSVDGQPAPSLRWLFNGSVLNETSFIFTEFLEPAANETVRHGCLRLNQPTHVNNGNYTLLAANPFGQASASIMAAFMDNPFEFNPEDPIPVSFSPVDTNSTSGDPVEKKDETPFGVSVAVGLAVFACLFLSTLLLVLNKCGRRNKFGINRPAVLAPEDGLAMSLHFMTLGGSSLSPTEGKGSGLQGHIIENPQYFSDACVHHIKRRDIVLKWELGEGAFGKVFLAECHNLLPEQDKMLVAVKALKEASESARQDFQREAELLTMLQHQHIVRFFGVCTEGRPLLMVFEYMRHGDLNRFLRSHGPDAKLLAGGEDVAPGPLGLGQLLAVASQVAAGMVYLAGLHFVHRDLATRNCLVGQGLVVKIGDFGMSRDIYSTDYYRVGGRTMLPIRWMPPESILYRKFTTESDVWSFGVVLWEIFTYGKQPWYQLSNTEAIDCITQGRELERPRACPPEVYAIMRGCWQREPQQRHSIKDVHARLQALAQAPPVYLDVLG
Experimental: as §1

[3] = biological target: NT-3 growth factor receptor (Homo sapiens, UniProt Q16288); assay: In Vitro Activity Test on TRKA, TRKB, TRKC Kinase
Sequence of NT-3 growth factor receptor (Q16288 whole entry): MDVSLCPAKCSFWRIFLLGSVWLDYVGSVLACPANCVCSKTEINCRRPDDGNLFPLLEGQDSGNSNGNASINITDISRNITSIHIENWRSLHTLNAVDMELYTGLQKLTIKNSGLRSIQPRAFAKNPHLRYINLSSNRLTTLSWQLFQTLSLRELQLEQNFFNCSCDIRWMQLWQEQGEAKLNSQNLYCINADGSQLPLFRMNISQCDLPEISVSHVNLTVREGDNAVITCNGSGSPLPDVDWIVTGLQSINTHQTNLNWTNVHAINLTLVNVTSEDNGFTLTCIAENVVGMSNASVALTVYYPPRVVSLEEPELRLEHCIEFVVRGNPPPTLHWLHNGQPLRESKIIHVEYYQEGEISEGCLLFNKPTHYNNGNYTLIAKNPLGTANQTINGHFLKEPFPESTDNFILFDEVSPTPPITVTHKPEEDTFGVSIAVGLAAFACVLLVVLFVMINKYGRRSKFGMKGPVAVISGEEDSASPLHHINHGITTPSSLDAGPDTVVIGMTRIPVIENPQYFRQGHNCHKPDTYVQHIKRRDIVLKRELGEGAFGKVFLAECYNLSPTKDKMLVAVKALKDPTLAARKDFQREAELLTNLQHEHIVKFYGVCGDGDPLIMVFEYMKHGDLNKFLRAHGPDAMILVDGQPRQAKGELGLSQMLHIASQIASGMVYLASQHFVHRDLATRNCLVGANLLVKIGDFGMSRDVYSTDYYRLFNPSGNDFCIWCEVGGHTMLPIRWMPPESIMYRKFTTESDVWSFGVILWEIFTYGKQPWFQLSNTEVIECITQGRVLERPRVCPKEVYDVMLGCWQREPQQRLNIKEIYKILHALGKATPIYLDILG
Experimental: as §1

[4] = biological target: High affinity nerve growth factor receptor [G595R] (Homo sapiens, UniProt P04629, G595R); assay: In Vitro Activity Test on Mutant TRKA (G595R)
Sequence of High affinity nerve growth factor receptor [G595R] (P04629 33-796 G595R limits assumed): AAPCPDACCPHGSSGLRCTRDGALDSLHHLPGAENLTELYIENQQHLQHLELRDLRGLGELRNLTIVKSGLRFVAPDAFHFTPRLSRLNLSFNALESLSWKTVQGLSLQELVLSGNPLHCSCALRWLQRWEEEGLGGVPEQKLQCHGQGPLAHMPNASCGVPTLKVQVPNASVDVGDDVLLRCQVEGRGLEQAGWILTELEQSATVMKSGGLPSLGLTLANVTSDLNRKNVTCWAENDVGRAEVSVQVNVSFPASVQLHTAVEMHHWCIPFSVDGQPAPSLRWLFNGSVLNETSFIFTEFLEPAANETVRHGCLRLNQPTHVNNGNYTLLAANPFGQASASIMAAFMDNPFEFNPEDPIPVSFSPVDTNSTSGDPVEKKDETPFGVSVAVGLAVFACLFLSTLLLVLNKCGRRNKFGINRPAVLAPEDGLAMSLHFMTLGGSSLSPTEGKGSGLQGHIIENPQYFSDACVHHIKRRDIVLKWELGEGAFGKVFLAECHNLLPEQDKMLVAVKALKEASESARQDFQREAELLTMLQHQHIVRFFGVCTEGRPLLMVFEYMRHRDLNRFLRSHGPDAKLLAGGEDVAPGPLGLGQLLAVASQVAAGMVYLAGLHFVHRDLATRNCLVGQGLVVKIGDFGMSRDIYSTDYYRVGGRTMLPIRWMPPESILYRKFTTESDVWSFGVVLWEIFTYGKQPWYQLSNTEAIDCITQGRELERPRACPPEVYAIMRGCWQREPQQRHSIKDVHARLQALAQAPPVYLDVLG
Experimental: Table 3: Experimental MaterialsThe recombinant human TRKA (G595R), TRKA (G667C) and TRKC (G623R) proteins were purchased from SignalChem. HTRF kinEASE TK kit was purchased from Cisbio Bioassays. Synergy Neo 2 of Biotek was used to read the plate. TRKA (G595R) Enzyme Reaction:0.12 ng/μL TRKA (G595R) kinase, 1 μM TK Substrate-biotin polypeptide substrate, 4.5 μM ATP, 1× enzymatic buffer, 5 mM MgCl2, and 1 mM DTT. The assay plate was White Proxiplate384-Plus plate (PerkinElmer), and the reaction was incubated at room temperature for 30 min, and the assay volume was 10 μL. Detection Steps:10 μL of detection reagent (containing 0.125 μM SA-XL665 and 5 μL 1×TK-Antibody) was added to the plate and incubated overnight at room temperature, and Synergy Neo 2 was used to read the plate.

Sequence of BDNF/NT-3 growth factors receptor (Q16620 whole entry): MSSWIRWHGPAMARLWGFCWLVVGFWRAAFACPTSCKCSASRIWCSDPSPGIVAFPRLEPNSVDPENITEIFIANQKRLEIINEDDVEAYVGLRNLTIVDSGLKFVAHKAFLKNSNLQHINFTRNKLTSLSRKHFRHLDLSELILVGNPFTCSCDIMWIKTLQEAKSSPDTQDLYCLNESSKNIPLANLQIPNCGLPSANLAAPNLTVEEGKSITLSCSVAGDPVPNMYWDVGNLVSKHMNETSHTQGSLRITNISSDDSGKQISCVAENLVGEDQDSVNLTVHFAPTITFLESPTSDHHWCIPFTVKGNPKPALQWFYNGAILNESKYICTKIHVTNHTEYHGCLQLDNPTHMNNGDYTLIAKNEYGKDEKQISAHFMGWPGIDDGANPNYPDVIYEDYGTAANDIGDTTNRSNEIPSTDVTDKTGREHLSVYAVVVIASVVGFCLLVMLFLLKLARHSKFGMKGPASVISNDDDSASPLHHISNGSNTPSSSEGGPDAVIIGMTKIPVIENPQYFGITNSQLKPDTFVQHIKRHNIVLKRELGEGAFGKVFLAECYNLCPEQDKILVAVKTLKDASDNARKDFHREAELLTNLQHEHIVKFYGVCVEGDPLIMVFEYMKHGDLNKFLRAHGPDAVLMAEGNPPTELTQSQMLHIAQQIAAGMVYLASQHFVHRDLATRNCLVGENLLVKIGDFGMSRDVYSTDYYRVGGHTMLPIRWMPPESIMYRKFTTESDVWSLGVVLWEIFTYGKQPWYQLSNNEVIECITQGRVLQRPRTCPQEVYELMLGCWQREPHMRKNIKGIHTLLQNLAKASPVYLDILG

CNC(=O)c1cnc2[nH]nc(N3CCC[C@@H]3c3cc(F)ccc3F)c2c1 [US12391687, Example 7]
IC50 [1]: < 10 nM | IC50 [2]: < 10 nM | IC50 [3]: < 10 nM

O=C(Nc1cnc2[nH]nc(N3C[C@@H](F)C[C@@H]3c3cc(F)ccc3F)c2c1)c1ccc(N2CC[C@H](O)C2)nc1 [US12391687, Example 11]
IC50 [1]: < 1 nM | IC50 [3]: < 10 nM | IC50 [4]: < 10 nM

NC(=O)CCNC(=O)c1cnc2[nH]nc(N3CCC[C@@H]3c3cc(F)ccc3F)c2c1 [US12391687, Example 15]
IC50 [1]: < 10 nM | IC50 [2]: < 10 nM | IC50 [3]: < 10 nM

Fc1ccc(F)c([C@H]2C[C@H](F)CN2c2n[nH]c3ncc(-c4cnn(C5CNC5)c4)cc23)c1 [US12391687, Example 26]
IC50 [1]: < 1 nM | IC50 [2]: < 1 nM | IC50 [3]: < 1 nM

CC(C)OCc1nnc(-c2cnc3[nH]nc(N4C[C@@H](F)C[C@@H]4c4cc(F)ccc4F)c3c2)o1 [US12391687, Example 42]
IC50 [1]: < 1 nM | IC50 [2]: < 1 nM | IC50 [3]: < 1 nM
